Experimental data reported in patent US20250249110A1, “ANTIMICROBIAL PEPTIDE DERIVATIVE AND USE THEREOF” (SICHUAN UNIVERSITY, priority 2016, published 2025).
Where a SMILES comes first, the peptide text is derived from it. The star is where a group is joined. Succinyl(4-O-cholesteryl) = CC(C)CCC[C@@H](C)[C@H]1CC[C@H]2[C@@H]3CC=C4C[C@@H](OC(=O)CCC(=O)*)CC[C@]4(C)[C@H]3CC[C@]12C

What was measured:
[1] = system: C26 mouse colon cancer peritoneal metastasis; assay: C26 mouse colon cancer peritoneal metastasis model; format: in vivo
Description: In order to further characterize the application potential of DP7-C micelles in tumor therapy, we established a C26 mouse colon cancer peritoneal metastasis model and used DP7-C to transmit anti-VEGF siRNA therapeutic genes for therapeutic research. • (1) Establishment of abdominal metastasis model: on day 0, female BALB/c mice aged 6-8 weeks are intraperitoneally injected with 0.1 ml of cell suspension (containing about 1×10^5 C26 cells). • (2) On day 3, mice are randomly divided into 4 groups, 8 mice for each group, and are labeled. • (3) Four groups of mice are intraperitoneally injected with 10 doses of normal saline (blank control group), blank DP7-C micelle (17.5 μg), DP7-C/no-sense control siRNA (Scramble siRNA) complex (17.5 μg/3.5 μg) or DP7-C/VEGF siRNA complex (17.5 μg/3.5 μg) respectively. • (4) On day 20, when the mice in the control group are already very weak, all the mice are killed by cervical dislocation; the tumor tissues in the abdominal cavity as well as the heart, liver, spleen, lung and kidney tissues are immediately collected, weighed and analyzed. The ascites of each group of mice is also collected and measured, and CD31 immunohistochemical staining is performed on tumor tissues of each experimental group. The collected heart, liver, spleen, lung and kidney tissues are analyzed by HE staining.

[2] = system: Staphylococcus aureus 33591; assay: Intra-abdominally infected mouse model; format: in vivo; conditions: intravenous administration
Description: The anti-infection activity of DP7-C is determined by the intra-abdominally infected models. […]
The experimental steps are as follows: • (1) Activate Staphylococcus aureus 33591 with MHB the day before the experiment, wash the activated strains twice with normal saline on the day of the experiment, and determine the concentration of bacterial liquid for later use. • (2) To establish an abdominally infected mouse model, intraperitoneally inject the bacterial solution of 1.5×10^8 cfu/0.5 mL into each mouse. • (3) Intravenously inject the drug by group after one hour of infection, 0.1 mL/mouse. • (4) 24 h later, intraperitoneally inject 5 mL of normal saline into the mouse, gently massage the abdomen, kill the mouse and disinfect with 75% alcohol. After 5 min, scissor the abdominal cavity epithelium, make a small opening in the abdominal cavity, draw ascites as much as possible from the opening with a 1 ml syringe, and then transfer to a sterile EP tube for mixing. • (5) Dilute with normal saline at a dilution of, for example, 10×, 100×, 1000× and 10000×; take three bacterial solutions with suitable concentrations, 20 μL each, coat the MHA plate and incubate in a bacteria incubator overnight. • (6) Select a plate with 20-200 colonies and convert and calculate the amount of bacteria per milliliter in 5 milliliters of ascites.

[3] = system: C26 subcutaneously implanted tumor; assay: Subcutaneously implanted tumor model of C26 mouse colon cancer; format: in vivo
Description: In order to further characterize the application potential of DP7-C micelles in tumor therapy, we established a subcutaneously implanted tumor model of C26 mouse colon cancer and used DP7-C to transmit anti-VEGF siRNA therapeutic genes for therapeutic research. • (1) On day 0, female BALB/c mice aged 6-8 weeks are subcutaneously inoculated with 0.1 mL of cell suspension (containing about 1.5×10^6 C26 cells). • (2) On day 8, when the tumor is palpable, mice are randomly divided into 4 groups, 8 mice for each group, and are labeled. • (3) Four groups of mice are intratumorally injected with 10 doses of normal saline (blank control group), blank DP7-C micelle (25 μg), DP7-C/no-sense control siRNA complex (25 μg/5 μg) or DP7-C/VEGF siRNA complex (25 μg/5 μg) respectively. • (4) On day 20, when the mice in the control group are already very weak, all the mice are killed by cervical dislocation; the tumor tissues in the abdominal cavity as well as the heart, liver, spleen, lung and kidney tissues are immediately collected, weighed and analyzed. The ascites of each group of mice is also collected and measured, and CD31 immunohistochemical staining is performed on tumor tissues of each experimental group. The collected heart, liver, spleen, lung and kidney tissues are analyzed by HE staining.

B16 mouse melanoma cells = assay: FAM-siRNA transfection efficiency in vitro, B16; format: cell-based; conditions: FAM-siRNA 1 μg, flow cytometry
Description: In 24 h before transfection, the C26 mouse colon cancer cells or B16 mouse melanoma cells are laid in a 6-well plate with a density of 5×10^4 cells per well, and 2 ml of DMEM medium containing 20% FBS is added to each well. FAM-modified no-sense siRNA (FAM-siRNA) is used as a reporter gene to detect transfection efficiency, while PEI25K and Lipofectamin2000 are used as positive controls. During transfection, the medium is firstly replaced with 1 ml of serum-free DMEM medium. Subsequently, the gene transfection complexes mixed at different proportions are added to each well, and each complex contains 1 μg of FAM-siRNA. Among them, the ratio of siRNA/DP7-C, siRNA/PEI25K and siRNA/Lipofectamin2000 is 1:5, 1:2 and 1:2 respectively. After the medium is incubated at 37° C. for 4 h, it is replaced by DMEM medium supplemented with 20% FBS and sequentially incubated. After 24 h, the transfection is observed under a microscope and photographed. All cells in the wells including floating and adherent cells are collected, washed twice with precooled PBS, and the total fluorescence intensity of each group is counted by flow cytometer (EPICS Elite ESP, USA).

[4] = heart, liver, spleen, lung, kidney
[5] = intraperitoneal injection, 10 doses, day 20

CC[C@H](C)[C@H](NC(=O)[C@H](CCCNC(=N)N)NC(=O)[C@H](Cc1c[nH]c2ccccc12)NC(=O)[C@H](CCC(N)=O)NC(=O)[C@@H](NC(=O)CCC(=O)O[C@H]1CC[C@@]2(C)C(=CC[C@H]3[C@@H]4CC[C@H]([C@H](C)CCCC(C)C)[C@@]4(C)CC[C@@H]32)C1)C(C)C)C(=O)N[C@@H](CCCNC(=N)N)C(=O)N[C@H](C(=O)N[C@@H](C)C(=O)N[C@H](C(=O)N[C@H](C(=O)N[C@@H](CCCNC(=N)N)C(=O)N[C@@H](CCCCN)C(N)=O)[C@@H](C)CC)C(C)C)C(C)C [DP7-C, Chol-suc-VQWRIRVAVIRK-NH2] ({Succinyl(4-O-cholesteryl)}-VQWRIRVAVIRK-NH2)
HE staining of major organ tissues [1, 4]: no significant pathological changes | average tumor weight [1, 5]: 7.94 ± 0.53 g | volume of ascites (printed as average tumor weight) [1, 5]: 1.17 ± 0.51 mL | average colony forming unit (CFU) of Staphylococcus aureus ([2]; DP7-C 1 mg/kg, VAN 20 mg/kg, vs NS group, p<0.01): significantly lower than those in NS group | antibacterial effect compared with positive drug group ([2]; no statistical difference): basically the same as that of the positive drug group | HE staining of major organ tissues [3, 4]: no significant pathological changes | average tumor weight (unit mm^3) ([3]; intratumoral injection, 10 doses): 357.64±30.56 mm^3 | transfection efficiency (B16 mouse melanoma cells): 53.3 ± 4.0%
